Patent US20260262643A1, “HERBICIDAL BENZOXAZINES” (FMC CORPORATION, priority 2022, published 2026)

Columns and labels:
blackgrass [1] = experiment: Test C postemergence; type: in vivo, Alopecurus myosuroides; conditions: 10 days
Summary of the method: (§1)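 Pre: seeds in loam/sand, directed soil spray. Post: 1–2 leaf plants, 2–10 cm. Cmpd in non-phytotoxic solvent + surfactant. Greenhouse 10 d; visual rating vs untreated, 0 = none, 100 = complete control.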

oat, wild [2] = experiment: Test C postemergence; type: in vivo, Avena fatua; conditions: 10 days
Summary of the method: as §1

ryegrass, Italian [3] = experiment: Test C postemergence; type: in vivo, Lolium multiflorum; conditions: 10 days
Summary of the method: as §1

corn [4] = experiment: Test C preemergence; type: in vivo, Zea mays; conditions: 0 to 100 scale (0 no effect, 100 complete control); for Plant response rating, Corn: Preemergence, 500 g ai/ha, visual rating after 10 days; for Corn plant response rating: Test C, preemergence, 125 g ai/ha
Summary of the method: as §1

horseweed = experiment: Test C postemergence; type: in vivo, Erigeron canadensis; conditions: 10 days
Summary of the method: as §1

soybean [5] = experiment: Test C preemergence; type: in vivo, Glycine max; conditions: 0 to 100 scale (0 no effect, 100 complete control); for Plant response rating, Soybean: Preemergence, 500 g ai/ha, visual rating after 10 days; for Soybean plant response rating: Test C, preemergence, 125 g ai/ha
Summary of the method: as §1

kochia [6] = experiment: Test C preemergence; type: in vivo, Bassia scoparia; conditions: 0 to 100 scale (0 no effect, 100 complete control); for Plant response rating, Kochia: Preemergence, 500 g ai/ha, visual rating after 10 days; for Kochia plant response rating: Test C, preemergence, 125 g ai/ha
Summary of the method: as §1

pigweed, palmer [7] = experiment: Test C postemergence; type: in vivo, Amaranthus palmeri; conditions: 10 days
Summary of the method: as §1

ragweed [8] = experiment: Test C postemergence; type: in vivo, Ambrosia artemisiifolia; conditions: 10 days
Summary of the method: as §1

wheat [9] = experiment: Test C postemergence; type: in vivo, Triticum aestivum; conditions: 10 days
Summary of the method: as §1

blackgrass [10] = experiment: Test C preemergence; type: in vivo, Alopecurus myosuroides; conditions: 0 to 100 scale (0 no effect, 100 complete control); for Plant response rating, Blackgrass: Preemergence, 500 g ai/ha, visual rating after 10 days; for Blackgrass plant response rating: Test C, preemergence, 125 g ai/ha
Summary of the method: as §1

barnyardgrass [11] = experiment: Test C preemergence; type: in vivo, Echinochloa crusgalli; conditions: 0 to 100 scale (0 no effect, 100 complete control); for Barnyardgrass plant response rating: 125 g ai/ha, preemergence; for Plant response rating, Barnyardgrass: Preemergence, 500 g ai/ha, visual rating after 10 days
Summary of the method: as §1

wheat [12] = experiment: Test C preemergence; type: in vivo, Triticum aestivum; conditions: 0 to 100 scale (0 no effect, 100 complete control); for Plant response rating, Wheat: Preemergence, 500 g ai/ha, visual rating after 10 days; for Wheat plant response rating: Test C, preemergence, 125 g ai/ha
Summary of the method: as §1

kochia [13] = experiment: Test C postemergence; type: in vivo, Bassia scoparia; conditions: 10 days
Summary of the method: as §1

ragweed [14] = experiment: Test C preemergence; type: in vivo, Ambrosia artemisiifolia; conditions: 0 to 100 scale (0 no effect, 100 complete control); for Plant response rating, Ragweed: Preemergence, 500 g ai/ha, visual rating after 10 days; for Ragweed plant response rating: Test C, preemergence, 125 g ai/ha
Summary of the method: as §1

green foxtail [15] = experiment: Test C preemergence; type: in vivo, Setaria viridis; conditions: 0 to 100 scale (0 no effect, 100 complete control); for Plant response rating, Foxtail, Green: Preemergence, 500 g ai/ha, visual rating after 10 days; for Foxtail, Green plant response rating: Test C, preemergence, 125 g ai/ha
Summary of the method: as §1

sedge, umbrella = experiment: Test D flooded paddy test; type: in vivo, Cyperus difformis; conditions: 250 g ai/ha, applied to paddy water, visual rating after 13 to 14 days, scale 0 to 100 (0 no effect, 100 complete control)
Summary of the method: (§2)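 Rating scale 0–100 (0 no effect, 100 complete control), visual, versus controls. Readout at 13–14 days after in-water application to 2-leaf plants in pots flooded 3 cm deep.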

pigweed, palmer [16] = experiment: Test C preemergence; type: in vivo, Amaranthus palmeri; conditions: 0 to 100 scale (0 no effect, 100 complete control); for Plant response rating, Pigweed, Palmer: Preemergence, 500 g ai/ha, visual rating after 10 days; for Pigweed, Palmer plant response rating: Test C, preemergence, 125 g ai/ha
Summary of the method: as §1

rice = experiment: Test D flooded paddy test; type: in vivo, Oryza sativa; conditions: 250 g ai/ha, applied to paddy water, visual rating after 13 to 14 days, scale 0 to 100 (0 no effect, 100 complete control)
Summary of the method: as §2

soybean [17] = experiment: Test C postemergence; type: in vivo, Glycine max; conditions: 10 days
Summary of the method: as §1

barnyardgrass [18] = experiment: Test C postemergence; type: in vivo, Echinochloa crusgalli; conditions: 10 days
Summary of the method: as §1

corn [19] = experiment: Test C postemergence; type: in vivo, Zea mays; conditions: 10 days
Summary of the method: as §1

galium = experiment: Test C postemergence; type: in vivo, Galium aparine; conditions: 10 days
Summary of the method: as §1

oat, wild [20] = experiment: Test C preemergence; type: in vivo, Avena fatua; conditions: 0 to 100 scale (0 no effect, 100 complete control); for Plant response rating, Oat, Wild: Preemergence, 500 g ai/ha, visual rating after 10 days; for Oat, Wild plant response rating: Test C, preemergence, 125 g ai/ha
Summary of the method: as §1

ryegrass, Italian [21] = experiment: Test C preemergence; type: in vivo, Lolium multiflorum; conditions: 0 to 100 scale (0 no effect, 100 complete control); for Plant response rating, Ryegrass, Italian: Preemergence, 500 g ai/ha, visual rating after 10 days; for Ryegrass, Italian plant response rating: Test C, preemergence, 125 g ai/ha
Summary of the method: as §1

green foxtail [22] = experiment: Test C postemergence; type: in vivo, Setaria viridis; conditions: 10 days
Summary of the method: as §1

barnyardgrass [23] = experiment: Test D flooded paddy test; type: in vivo, Echinochloa crus-galli; conditions: 250 g ai/ha, applied to paddy water, visual rating after 13 to 14 days, scale 0 to 100 (0 no effect, 100 complete control)
Summary of the method: as §2

ducksalad = experiment: Test D flooded paddy test; type: in vivo, Heteranthera limosa; conditions: 250 g ai/ha, applied to paddy water, visual rating after 13 to 14 days, scale 0 to 100 (0 no effect, 100 complete control)
Summary of the method: as §2

[24] = 125 g ai/ha, postemergence, 0 to 100 scale, 0 no effect, 100 complete control
[25] = Postemergence, 500 g ai/ha, visual 0 to 100 scale (0 no effect, 100 complete control)

C[C@H]1CN(C(=O)c2cc(-n3cnc(C4CC4)n3)cc3c2OCCO3)c2cccc(Cl)c2O1 [Compound 156]
25: Plant response rating, Rice (Flood) (rice)
80: Plant response rating, Blackgrass (blackgrass [1]; [24]) | Soybean plant response rating (soybean [5]) | Kochia plant response rating (kochia [6]) | Plant response rating, Pigweed, Palmer (pigweed, palmer [7]; [24]) | Plant response rating, Ragweed (ragweed [8]; [24]) | Plant response rating, Wheat (wheat [9]; [25]) | Plant response rating, Kochia (kochia [13]; [24])
95: Plant response rating, Sedge, Umbrella (Flood) (sedge, umbrella)
90: Plant response rating, Blackgrass (blackgrass [1]; [25]) | Plant response rating, Ryegrass, Italian (ryegrass, Italian [3]; [25]) | Plant response rating, Blackgrass (blackgrass [10]) | Plant response rating, Barnyardgrass (barnyardgrass [11]) | Plant response rating, Kochia (kochia [13]; [25]) | Plant response rating, Ragweed (ragweed [14]) | Plant response rating, Barnyardgrass (barnyardgrass [18]; [25]) | Plant response rating, Ryegrass, Italian (ryegrass, Italian [21]) | Plant response rating, Foxtail, Green (green foxtail [22]; [24]) | Plant response rating, Foxtail, Green (green foxtail [22]; [25])
60: Plant response rating, Horseweed (horseweed; [25]) | Plant response rating, Wheat (wheat [9]; [24]) | Ryegrass, Italian plant response rating (ryegrass, Italian [21])
0: Corn plant response rating (corn [4])
70: Barnyardgrass plant response rating (barnyardgrass [11]) | Ragweed plant response rating (ragweed [14]) | Plant response rating, Barnyardgrass (barnyardgrass [18]; [24])
100: Plant response rating, Soybean (soybean [5]) | Plant response rating, Kochia (kochia [6]) | Plant response rating, Pigweed, Palmer (pigweed, palmer [7]; [25]) | Plant response rating, Ragweed (ragweed [8]; [25]) | Plant response rating, Foxtail, Green (green foxtail [15]) | Foxtail, Green plant response rating (green foxtail [15]) | Plant response rating, Pigweed, Palmer (pigweed, palmer [16]) | Pigweed, Palmer plant response rating (pigweed, palmer [16]) | Plant response rating, Soybean (soybean [17]; [24]) | Plant response rating, Soybean (soybean [17]; [25]) | Plant response rating, Galium (galium; [24]) | Plant response rating, Galium (galium; [25])
10: Plant response rating, Corn (corn [4]) | Wheat plant response rating (wheat [12])
50: Plant response rating, Ryegrass, Italian (ryegrass, Italian [3]; [24]) | Plant response rating, Horseweed (horseweed; [24]) | Blackgrass plant response rating (blackgrass [10]) | Plant response rating, Corn (corn [19]; [25])
65: Plant response rating, Ducksalad (Flood) (ducksalad)
20: Plant response rating, Oat, Wild (oat, wild [2]; [24]) | Oat, Wild plant response rating (oat, wild [20])
30: Plant response rating, Oat, Wild (oat, wild [2]; [25]) | Plant response rating, Wheat (wheat [12]) | Plant response rating, Corn (corn [19]; [24])
40: Plant response rating, Oat, Wild (oat, wild [20]) | Plant response rating, Barnyardgrass (Flood) (barnyardgrass [23])

C[C@H]1CN(C(=O)c2cc(-n3cnc(C4CCC4)n3)cc3c2OCCO3)c2cccc(Cl)c2O1 [Compound 157]
60: Plant response rating, Blackgrass (blackgrass [1]; [24]) | Plant response rating, Soybean (soybean [5])
45: Plant response rating, Sedge, Umbrella (Flood) (sedge, umbrella)
80: Plant response rating, Ryegrass, Italian (ryegrass, Italian [3]; [25]) | Plant response rating, Ragweed (ragweed [14])
30: Plant response rating, Ryegrass, Italian (ryegrass, Italian [3]; [24]) | Plant response rating, Horseweed (horseweed; [24]) | Plant response rating, Wheat (wheat [9]; [25]) | Plant response rating, Blackgrass (blackgrass [10]) | Blackgrass plant response rating (blackgrass [10]) | Plant response rating, Wheat (wheat [12]) | Plant response rating, Barnyardgrass (barnyardgrass [18]; [24])
20: Plant response rating, Oat, Wild (oat, wild [2]; [24]) | Plant response rating, Oat, Wild (oat, wild [2]; [25]) | Kochia plant response rating (kochia [6]) | Plant response rating, Wheat (wheat [9]; [24]) | Plant response rating, Rice (Flood) (rice) | Plant response rating, Corn (corn [19]; [25])
90: Plant response rating, Horseweed (horseweed; [25]) | Plant response rating, Kochia (kochia [6]) | Plant response rating, Pigweed, Palmer (pigweed, palmer [7]; [24]) | Plant response rating, Barnyardgrass (barnyardgrass [11]) | Plant response rating, Kochia (kochia [13]; [24]) | Ragweed plant response rating (ragweed [14]) | Plant response rating, Ryegrass, Italian (ryegrass, Italian [21]) | Plant response rating, Foxtail, Green (green foxtail [22]; [25])
10: Plant response rating, Corn (corn [19]; [24])
0: Plant response rating, Corn (corn [4]) | Corn plant response rating (corn [4]) | Wheat plant response rating (wheat [12]) | Oat, Wild plant response rating (oat, wild [20]) | Plant response rating, Ducksalad (Flood) (ducksalad)
70: Plant response rating, Blackgrass (blackgrass [1]; [25]) | Plant response rating, Barnyardgrass (barnyardgrass [18]; [25]) | Ryegrass, Italian plant response rating (ryegrass, Italian [21]) | Plant response rating, Foxtail, Green (green foxtail [22]; [24])
100: Plant response rating, Pigweed, Palmer (pigweed, palmer [7]; [25]) | Plant response rating, Ragweed (ragweed [8]; [24]) | Plant response rating, Ragweed (ragweed [8]; [25]) | Plant response rating, Kochia (kochia [13]; [25]) | Plant response rating, Foxtail, Green (green foxtail [15]) | Foxtail, Green plant response rating (green foxtail [15]) | Plant response rating, Pigweed, Palmer (pigweed, palmer [16]) | Pigweed, Palmer plant response rating (pigweed, palmer [16]) | Plant response rating, Soybean (soybean [17]; [24]) | Plant response rating, Soybean (soybean [17]; [25]) | Plant response rating, Galium (galium; [24]) | Plant response rating, Galium (galium; [25])
15: Plant response rating, Barnyardgrass (Flood) (barnyardgrass [23])
50: Soybean plant response rating (soybean [5]) | Barnyardgrass plant response rating (barnyardgrass [11]) | Plant response rating, Oat, Wild (oat, wild [20])
